Data published in patent US9415031B2, “D-serine transporter inhibitors as pharmaceutical compositions for the treatment of visual system disorders” (Allergan, Inc., priority 2011, dated 2016).
“Also recorded” adds a separate entry of the source.

Key:
[1] = target: T1, human ASCT2 (Homo sapiens, UniProt Q15758); experiment: transport into HEK cells expressing ASCT2; type: cell-based
T1 construct: expressed in transfected cells; host or cells: HEK (human embryonic kidney) cells
T1 sequence (Q15758 1-541): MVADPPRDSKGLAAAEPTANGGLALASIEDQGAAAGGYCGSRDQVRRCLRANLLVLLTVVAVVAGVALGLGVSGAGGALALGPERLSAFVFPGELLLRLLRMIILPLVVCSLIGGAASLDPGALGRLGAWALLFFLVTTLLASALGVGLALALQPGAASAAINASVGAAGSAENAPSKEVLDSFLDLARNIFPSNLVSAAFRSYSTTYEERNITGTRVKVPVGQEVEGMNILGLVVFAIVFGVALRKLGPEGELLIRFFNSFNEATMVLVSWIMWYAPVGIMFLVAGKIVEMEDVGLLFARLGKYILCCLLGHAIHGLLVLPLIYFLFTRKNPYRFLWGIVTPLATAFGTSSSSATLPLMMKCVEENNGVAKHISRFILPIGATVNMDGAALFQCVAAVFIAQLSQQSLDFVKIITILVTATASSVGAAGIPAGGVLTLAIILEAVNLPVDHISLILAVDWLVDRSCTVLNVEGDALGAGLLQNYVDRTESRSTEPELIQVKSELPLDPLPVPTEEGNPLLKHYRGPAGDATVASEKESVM
Experimental: (§1) Cell-based assays: the transport of [^3H]L- or D-serine was measured in primary cultures of rat hippocampal astrocytes or in human embryonic kidney (HEK) cells expressing ASCT transporter sub-types. For the astrocyte assays, cells were plated on either 24- or 96-well plates at a density of 50,000 cells per well. For the HEK assays, cells were plated on coated 96-well plates at a density of 80,000 cells/well. Assays were conducted in duplicate at room temperature in assay buffer consisting of: NaCl: 150 mM, KCl: 2 mM; MgCl2: 1 mM; CaCl2: 1 mM; HEPES: Tris buffer: 10 mM, pH7.4. To assess the sodium-dependence of transport, NaCl was replaced in the assay buffer by equimolar choline chloride. Following aspiration of growth medium and 2 washes with assay buffer, cells were incubated with [^3H]L- or D-serine at a final concentration of 1 μM for 5 min (astrocytes) or 1 min (HEK cells), after which the incubation medium was aspirated and the cells washed twice with ice-cold assay buffer. Cells containing radiolabel were solubilized in 100 μl of 1% Triton-X100 and an aliquot counted in a beta counter. IC50 values were determined over a range of at least 6 concentrations and derived from curve-fitting algorithms available in Graph Pad Prism 4.

[2] = target: T2, ASCT1 (Homo sapiens, UniProt P43007); experiment: transport into HEK cells expressing ASCT1; type: cell-based; set-up: expressed in transfected cells; host or cells: HEK (human embryonic kidney) cells; settings: for selectivity towards ASCT1: inhibition of [3H]L-serine transport, HEK cells expressing ASCT1 vs ASCT2
T2 sequence (P43007 1-532): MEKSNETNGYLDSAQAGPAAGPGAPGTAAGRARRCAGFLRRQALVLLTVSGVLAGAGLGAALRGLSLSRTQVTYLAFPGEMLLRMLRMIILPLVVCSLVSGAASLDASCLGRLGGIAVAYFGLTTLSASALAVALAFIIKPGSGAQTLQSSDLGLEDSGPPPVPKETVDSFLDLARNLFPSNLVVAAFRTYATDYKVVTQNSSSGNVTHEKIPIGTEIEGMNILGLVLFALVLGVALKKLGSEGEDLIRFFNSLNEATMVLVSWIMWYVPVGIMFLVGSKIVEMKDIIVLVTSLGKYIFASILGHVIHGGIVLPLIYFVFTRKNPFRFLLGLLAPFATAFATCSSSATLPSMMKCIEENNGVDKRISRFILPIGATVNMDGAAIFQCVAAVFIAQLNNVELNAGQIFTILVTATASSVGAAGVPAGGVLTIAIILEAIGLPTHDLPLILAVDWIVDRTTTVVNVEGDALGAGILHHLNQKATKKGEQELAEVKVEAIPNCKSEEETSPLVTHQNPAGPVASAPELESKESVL
Experimental: as §1

[3] = system: astrocytes; experiment: [3H]L-serine transport into astrocytes; type: cell-based, rat; settings: FIG. 6B
Experimental: as §1

[4] = system: rats after blue-light treatment; experiment: contrast sensitivity (sweep VEP) in blue-light treated rats; type: in vivo, rat
Experimental: (§2) The recording electrodes were permanently implanted into the right visual cortex of Long Evans rats at lambda and 4.5 mm lateral to the midline, to a depth of 800 microns (layer III/iV). A reference electrode was placed epidurally on the midline 1.2 mm anterior to bregma. All recordings were conducted in awake rats starting at least two weeks after recovery from surgery. During recording the rats were alert and restrained in a home-made restrainer. They were habituated 2-3 times pre-surgery and at least three more times during seven days post-surgery. PowerDiva software from Anthony Norcia (Smith Kettlewell Institute of Visual Sciences) was used for data acquisition and analysis. Similar recording was performed in rabbits (FIG. 11) except the screw electrodes were place on top of the skull.
One stimulus presentation (one trial) consists of a contrast sweep increasing from 2.5 to 70% in 15 log steps. A total of 20 to 30 trials were collected. Contrast thresholds (CT) were estimated using PowerDiva software. Contrast sensitivity (CS) is calculated as 1/CT.
Blue-light treatment damages photoreceptors in the retina, and has been proposed as a model of age related macular degeneration (ARMD; Wielgus et al., 2010).

[5] = system: normal rats; experiment: sweep VEP visual acuity in normal rats; type: in vivo, rat; settings: 0.03-1.6 cpd, vs saline
Source text: Sweep visually evoked potential (sweep VEP, sVEP), which was first introduced by Regan in 1973, has become an important technique to measure visual function. It is an objective method that can be used to assess visual acuity (VA) and contrast sensitivity (CS) in infants, young children and people with special needs. It was adapted to measure VA and CS in animals.
as §2
(§3) Stimuli were presented on a CRT computer monitor and consist of full-field sine-wave gratings at 80% contrast, reversing at 6.25 Hz. VEPs were elicited by horizontally oriented gratings. The display was positioned 24 cm in front of the rat and centered at the vertical meridian. Mean luminance was held constant at 20 cd. For sVEP in normal rats (slides 76-79), one stimulus presentation (one trial) consists of a spatial frequency sweep decreasing from 1.6 to 0.03 cycles/degree in 15 linear steps. A total of 20 trials were collected. Visual acuity (VA) thresholds were estimated using PowerDiva software. For fixed frequency stimulus in optic nerve crushed (ONC) rats (slides 80-83), the spatial frequency was fixed at 0.2 or 0.5 cycles/degree. Each trial lasts for 15 s. A total of 5 trials were collected and the signal powers were calculated.

[6] = system: ONC rat; experiment: fixed-frequency VEP in optic nerve crush (ONC) rats; type: in vivo; settings: 30 mg/kg, spatial frequency fixed at 0.2 cpd, vs saline
Experimental: as §2
as §3, with “Visual acuity (VA) thresholds were estimated using PowerDiva software. For fixed frequency stimulus in optic nerve crushed (ONC) rats (slides 80-83), the spatial frequency was fixed at 0.2 or 0.5 cycles/degree. Each trial lasts for 15 s.” left out

[7] = system: NMDA receptor-mediated excitatory postsynaptic currents (EPSCNMDA); experiment: electrophysiological recording of NMDA receptor-mediated EPSCs from rat hippocampal slices; type: cell-based
Experimental: […] thick hippocampal slices were prepared from […] rats using Leica VT1000S-microtome. Slices were perfused with ACSF containing: 121 mM NaCl, 2.5 mM KCl, 2.0 mM Mg2SO4, 2.0 CaCl2, 1 mM NaH2PO4, 26.2 NaHCO3, and 11 mM glucose, which was equilibrated with 5% CO2/95% O2. Experiments were performed in a recording chamber on the stage of an Olympus BX-61wi microscope with infrared DIC optics for visualizing whole-cell patch-clamp recordings. EPSPs were recorded from CA1 pyramidal neurons by stimulating the Schaffer collateral-commissural pathway using a bipolar tungsten electrode. The recording pipettes were filled with regular ICM containing: 120 mM Cs-gluconate, 5 mM NaCl, 10 mM KCl, 0.1 mM CaCl2, 1 mM EGTA, 2 mM MgCl2, 10 mM HEPES, 2 mM Na-ATP, 2 mM Na2-phosphocreatine, and 0.25 mM Na-GTP, pH 7.3 (290 mOsm).
To measure NMDA-mediated EPSCs, extracellular Mg2SO4 was lowered to 0.2 mM and 2 μM NBQX and 100 μM picrotoxin were added in the ACSF. 1 μM 7-CKY (7-chlorokynurenic acid) was added to improve the sensitivity of […] to D-serine.

[8] = system: normal rabbits; experiment: sweep VEP in normal rabbits; type: in vivo, rabbit; settings: 30 mg/kg, 0.03-1.6 cpd, vs saline
Experimental: as §2
as §3, with “Visual acuity (VA) thresholds were estimated using PowerDiva software. For fixed frequency stimulus in optic nerve crushed (ONC) rats (slides 80-83), the spatial frequency was fixed at 0.2 or 0.5 cycles/degree. Each trial lasts for 15 s.” left out

[9] = system: long-term potentiation (LTP) in the primary visual cortex; experiment: long-term potentiation (LTP) in primary visual cortex slices; type: cell-based; settings: rat visual cortex slice
Experimental: Long Term Potentiation (LTP) in primary visual cortex has been used as a cellular model for visual cortex plasticity and has functional consequences on visual evoked responses. NMDA receptors play a critical role in visual cortex LTP induction.
Following decapitation of the rat, the brain was rapidly removed and immersed in ice-cold artificial cerebrospinal fluid (ACSF) containing 124 mM NaCl, 3 mM KCl, 1.25 mM KH2PO4, 3.4 mM CaCl2, 2.5 mM MgSO4, 26 mM NaHCO3, and 10 mM D-glucose. A block of visual cortex was created by removing the frontal ⅔ portion of the brain and the cerebellum. Coronal visual cortex slices of 375 μm were prepared from adult Sprague Dawley (SD) rats using a vibratome (VT 1000 S; Leica). The slices were maintained in an interface recording chamber perfused with preheated ACSF. Slices were continuously perfused with this solution at a rate of 1.00-1.50 ml/min while the surface of the slices was exposed to warm, humidified 95% O2/5% CO2 and maintained at 31±1° C. Visual cortex slices were allowed to recover for 1 hr before recording began. […] This was repeated 2 additional times with a 1 minute intertrain interval, and the level of LTP was recorded for at least 30 min. Changes in amplitude of the synaptic response were used to measure the extent of LTP because it was determined to be the more consistent parameter than the slope of the response. […]

[10] = system: ASCT2; settings: literature range; cited from earlier work
[11] = system: rat hippocampal astrocytes; experiment: [3H]D-serine transport into primary cultures of rat hippocampal astrocytes; type: cell-based; settings: two-component inhibition curves, FIG. 4
Experimental: as §1

[12] = target: T2, ASCT1; settings: one literature report; cited from earlier work

## N[C@H](CO)C(=O)O [D-serine]
[1]; ASCT2-expressing HEK cells, FIG. 6B
  inhibition of [3H]L-serine transport: completely inhibited
[2]; ASCT1-expressing HEK cells, FIG. 6B
  inhibition of [3H]L-serine transport: completely inhibited
[2]; with and without extracellular sodium, FIG. 6A
  transport of [3H]D-serine into ASCT1-expressing HEK cells: transported into ASCT1-expressing HEK cells in a sodium-dependent manner
[3]
  inhibition of [3H]L-serine transport: completely inhibited

## N[C@H](C(=O)O)c1ccc(F)cc1 [L-4FPG, L-4-fluorophenylglycine]
[4]; rats fifty-three weeks after blue-light treatment, 10 mg/kg, 0.575 cpd, vs saline
  contrast sensitivity: improved the contrast sensitivity
[5]; 10 mg/kg, 40 min after injection, 10 mg/kg
  visual function (visual acuity) assessed by sweep VEP: enhance visual function
[5]; 10 mg/kg, 40 min after injection, listed as L-FPG, 10 mg/kg
  visual function (visual acuity) assessed by sweep VEP: enhances visual function

## N[C@H](C(=O)O)c1ccc(O)cc1 [L-4OHPG, L-4-hydroxyphenylglycine]
[6]
  visually-evoked signals (power of signals) from the visual cortex: visual enhancement effect; also recorded: enhances visually-evoked signals
[7]; 1000 μM, in presence of 1 μM 7-CKY, representative experiment
  percentage increase in the amplitude of EPSCNMDA: 22%
[7]; 1000 μM, then control buffer
  duration of the potentiation effect on EPSCNMDA: lasted for one hour
[7]; CA1 region of the hippocampus
  effect on NMDA receptor-mediated EPSCs: dose-dependent effects; also recorded: potentiated
[4]; rats with damaged retinas following blue-light treatment, FIG. 12 as described in text
  contrast sensitivity: significant improvement in contrast sensitivity
[8]
  visual function assessed by sweep VEP: enhances visual function; also recorded: enhanced sweep VEP
[5]; 30 mg/kg, 30 min after injection, 30 mg/kg
  visual function (visual acuity) assessed by sweep VEP: enhance visual function
[9]
  effect on LTP evoked by theta burst stimulation: dose-dependently facilitates; also recorded: enhanced LTP in a concentration-dependent manner
[9]; D-AAO
  effect on LTP with D-amino acid oxidase (D-AAO) in the perfusion medium: dependent on extracellular D-serine; also recorded: completely prevented

## NC(=O)CC[C@H](N)C(=O)O [L-glutamine]
[1]; inhibition of [3H]L-serine transport, HEK cells expressing ASCT1 vs ASCT2
  selectivity towards ASCT2: selectivity towards ASCT2; also recorded: selective for ASCT2
[10]
  reported affinity for ASCT2: 23 to 70 µM
[11]
  proportion of D-serine transport represented by the component for which the compound showed higher affinity: approximately 40%

## O=C(O)[C@@H]1C[C@@H](O)CN1 [L-t-4OHPro, L-trans-4-hydroxyproline]
[2]
  selectivity towards ASCT1: selectivity towards ASCT1
[2]; listed as L-trans-4OHPro
  selectivity towards ASCT1: selective for ASCT1
[12]
  reported affinity for ASCT1: high affinity
[11]
  proportion of D-serine transport represented by the component for which the compound showed higher affinity: approximately 60%
